Test results taken from patent publication US6667335B2, “Imidazole derivatives” (Hoffmann-La Roche Inc., priority 2001, dated 2003).
pIC50: −log10 of the molar value.

Key:
NMDA-receptor subtype 2B = molecular target: T1, NMDA-receptor subtype 2B (Rattus norvegicus, UniProt P35439+Q00960); test: 3H-Ro 25-6981 binding (displacement) on rat brain membranes; conditions: displacement of 5 nM 3H-Ro 25-6981, rat whole brain membranes (minus cerebellum and medulla oblongata), 2 hours at 4° C.
T1 construct: Membranes were prepared by homogenization of the whole brain minus cerebellum and medulla oblongata; from tissue; host or cells: rat whole brain minus cerebellum and medulla oblongata, membrane preparation
T1 sequence (Q00960 27-1482, other chains not shown): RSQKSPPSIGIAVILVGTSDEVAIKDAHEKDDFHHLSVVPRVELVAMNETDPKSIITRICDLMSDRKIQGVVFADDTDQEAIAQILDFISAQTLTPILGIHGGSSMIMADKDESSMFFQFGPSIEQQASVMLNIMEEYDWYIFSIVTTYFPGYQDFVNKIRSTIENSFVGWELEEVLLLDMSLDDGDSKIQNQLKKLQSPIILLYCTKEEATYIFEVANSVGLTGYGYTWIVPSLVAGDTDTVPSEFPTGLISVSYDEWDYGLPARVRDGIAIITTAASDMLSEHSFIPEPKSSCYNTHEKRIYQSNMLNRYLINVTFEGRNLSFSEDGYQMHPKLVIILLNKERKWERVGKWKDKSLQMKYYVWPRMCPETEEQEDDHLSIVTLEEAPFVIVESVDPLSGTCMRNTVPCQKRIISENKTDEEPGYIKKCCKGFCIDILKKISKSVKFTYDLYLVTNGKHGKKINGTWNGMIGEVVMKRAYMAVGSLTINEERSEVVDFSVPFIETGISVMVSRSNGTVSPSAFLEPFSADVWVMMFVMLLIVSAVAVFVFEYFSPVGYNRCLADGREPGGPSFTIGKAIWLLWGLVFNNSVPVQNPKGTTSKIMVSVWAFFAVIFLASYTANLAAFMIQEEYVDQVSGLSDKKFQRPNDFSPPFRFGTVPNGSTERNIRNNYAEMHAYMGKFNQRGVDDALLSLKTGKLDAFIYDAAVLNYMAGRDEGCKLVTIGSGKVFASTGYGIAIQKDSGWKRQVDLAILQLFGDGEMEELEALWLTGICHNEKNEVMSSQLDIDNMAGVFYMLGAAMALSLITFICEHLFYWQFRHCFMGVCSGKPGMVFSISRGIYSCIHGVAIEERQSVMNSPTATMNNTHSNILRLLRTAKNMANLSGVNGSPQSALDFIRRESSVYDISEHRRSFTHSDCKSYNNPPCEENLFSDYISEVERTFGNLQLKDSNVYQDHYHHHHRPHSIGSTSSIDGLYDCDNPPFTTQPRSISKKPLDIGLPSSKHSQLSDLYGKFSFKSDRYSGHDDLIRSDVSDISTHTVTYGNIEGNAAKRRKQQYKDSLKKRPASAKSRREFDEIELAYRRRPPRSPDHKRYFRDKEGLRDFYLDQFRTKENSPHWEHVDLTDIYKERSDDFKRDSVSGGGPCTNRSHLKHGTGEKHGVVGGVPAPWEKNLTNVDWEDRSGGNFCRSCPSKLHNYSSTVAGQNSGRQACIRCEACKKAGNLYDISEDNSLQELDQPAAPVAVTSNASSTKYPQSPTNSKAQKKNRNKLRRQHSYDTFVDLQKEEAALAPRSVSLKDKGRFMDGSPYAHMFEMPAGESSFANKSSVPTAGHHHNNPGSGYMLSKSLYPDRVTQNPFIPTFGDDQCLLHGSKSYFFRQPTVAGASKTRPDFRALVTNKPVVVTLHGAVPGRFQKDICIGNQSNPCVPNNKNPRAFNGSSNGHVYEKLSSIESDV
Procedure: ^3H[R-(R*,S*)]-(α-(4-Hydroxy-phenyl)-β-methyl-4-(phenyl-methyl)-1-piperidine propanol)binding
Male Füllinsdorf albino rats weighing between 150-200 g were used. Membranes were prepared by homogenization of the whole brain minus cerebellum and medulla oblongata with a Polytron (10.000 rpm, 30 seconds), in 25 volumes of a cold Tris-HCl 50 mM, EDTA 10 mM, pH 7.1 buffer. The homogenate was centrifuged at 48,000 g for 10 minutes at 4° C. The pellet was resuspended using the Polytron in the same volume of buffer and the homogenate was incubated at 37° C. for 10 minutes. After centrifugation the pellet was homogenized in the same buffer and frozen at −80° C. for at least 16 hours but not more than 10 days. For the binding assay the homogenate was thawed at 37° C., centrifuged and the pellet was washed three times as above in a Tris-HCl 5 mM, pH 7.4 cold buffer. The final pellet was resuspended in the same buffer and used at a final concentration of […]. ^3H-Ro 25-6981 binding experiments were performed using a Tris-HCl 50 mM, pH 7.4 buffer. For displacement experiments 5 nM of ^3H-Ro 25-6981 were used and non specific binding was measured using 10 mM of tetrahydroisoquinoline and usually it accounts for 10% of the total. The incubation time was 2 hours at 4° C. and the assay was stopped by filtration on Whatmann GF/B glass fiber filters (Unifilter-96, Packard, Zürich, Switzerland). The filters were washed 5 times with cold buffer. The radioactivity on the filter was counted on a Packard Top-count microplate scintillation counter after addition of […] of microscint 40 (Canberra Packard S.A., Zuirich, Switzerland).
The effects of compounds were measured using a minimum of 8 concentrations and repeated at least once.

Row | Compound | melting point | pIC50 (NMDA-receptor subtype 2B)
1 | C=Cc1cccc(-n2cnc(Cn3ccnc3C)c2)c1.Cl.Cl [Example 172, 1H-Imidazole, 2-Methyl-1-[[1-(3-vinylphenyl)-1H-imidazol-4-yl]methyl]-, Hydrochloride (1:2)] | 207 to 208 °C | 7.62
2 | CCc1nccn1Cc1cn(-c2cccc(Cl)c2)cn1.Cl.Cl [Example 174, 1H-Imidazole, 1-[[1-(3-Chlorophenyl)-1H-imidazol-4-yl]methyl]-2-ethyl-, Hydrochloride (1:2)] | > 200 °C (dec.) | 7.20
3 | Cc1nccn1Cc1cn(-c2cccc(I)c2)cn1.Cl.Cl [Example 176, 1H-Imidazole, 1-[[1-(3-Iodophenyl)-1H-imidazol-4-yl]methyl]-2-methyl-, Hydrochloride (1:2)] | > 222 °C (dec.) | 7.49
4 | CCc1nccn1Cc1cn(-c2cc(F)cc(C(F)(F)F)c2)cn1.Cl.Cl [Example 177, 1H-Imidazole, 2-Ethyl-1-[[1-[3-fluoro-5(trifluoromethyl)phenyl]-1H-imidazol-4-yl]methyl]-, Hydrochloride (1:2)] | 243 to 244 °C | 7.43
5 | Cc1nccn1Cc1cn(-c2cc(F)cc(C(F)(F)F)c2)cn1.Cl.Cl [Example 178, 1H-Imidazole, 1-[[1-[3-Fluoro-5(trifluoromethyl)phenyl]-1H-imidazol-4-yl]methyl]-2-methyl-, Hydrochloride (1:2)] | > 250 °C | 7.13
6 | COc1cc(-n2cnc(Cn3ccnc3C)c2)cc(C(F)(F)F)c1.Cl.Cl [Example 180, 1H-Imidazole, 1-[[1-[3-Methoxy-5(trifluoromethyl)phenyl]-1H-imidazol-4-yl]methyl]-2-methyl-, Hydrochloride (1:2)] | 246 to 247 °C | 7.30
7 | Cc1nccn1Cc1cn(-c2cccc(C(C)(C)C)c2)cn1.Cl.Cl [Example 183, 1H-Imidazole, 1-[[1-(3-tert-Butylphenyl)-1H-imidazol-4-yl]methyl]-2-methyl-, Hydrochloride (1:2)] | > 200 °C (dec.) | 7.28

More lines, now with the values ahead:

Row | melting point | pIC50 (NMDA-receptor subtype 2B) | Compound
8 | 221 to 222 °C | 7.28 | Cc1nccn1Cc1cn(-c2ccc(OC(F)(F)F)c(Cl)c2)cn1.Cl.Cl [Example 186, 1H-Imidazole, 1-[[1-[3-Chloro-4(trifluoromethoxy)phenyl]-1H-imidazol-4-yl]methyl]-2-methyl-, Hydrochloride (1:2)]
9 | 216 to 217 °C | 7.28 | CCc1nccn1Cc1cn(-c2cccc(OC(F)F)c2)cn1.Cl.Cl [Example 189, 1H-Imidazole, 1-[[1-[3-(Difluoromethoxy)phenyl]-1H-imidazol-4-yl]methyl]-2-ethyl-, Hydrochloride (1:2)]
10 | 205 to 207 °C | 7.26 | Cc1nccn1Cc1cn(-c2cccc(Br)c2)cn1.Cl.Cl [Example 192, 1H-Imidazole, 1-[[1-(3-Bromophenyl)-1H-imidazol-4-yl]methyl]-2-methyl-, Hydrochloride (1:2)]
11 | 195 to 196 °C | 7.10 | Cc1nccn1Cc1cn(-c2cccc(C(F)F)c2)cn1.Cl.Cl [Example 194, 1H-Imidazole, 1-[[1-[3-(Difluoromethyl)phenyl]-1H-imidazol-4-yl]methyl]-2-methyl-, Hydrochloride (1:2)]
12 | > 200 °C (dec.) | 7.01 | CCc1nccn1Cc1cn(-c2cc(F)cc(Br)c2)cn1.Cl.Cl [Example 199, 1H-Imidazole, 1-[[1-(3-Bromo-5-fluorophenyl)-1H-imidazol-4-yl]methyl]-2-ethyl-, Hydrochloride (1:2)]
13 | > 245 °C (dec.) | 8.00 | Cl.Cl.Nc1nccn1Cc1cn(-c2ccc3c(c2)OCO3)cn1 [Example 224, 1-(1-Benzo[1,3]dioxol-5-yl-1H-imidazol-4-ylmethyl)-1H-imidazol-2-ylamine Hydrochloride (1:2)]
